The text below walks through data of US5296487A, “Quinazoline derivatives and their preparation” (priority 1990, dated 1994).

In brackets after ≈: the same amount, converted by molar mass. Structures can show the parent of a compound that is named as a salt.

A short description of data set [1]: Stability (storage at accelerated conditions). It counts as physicochemical. As to conditions: for Residual Amount (%): 12960 min. Here is the method:
Test Compounds were stored for 9 days at accelerated conditions as shown in the following table, and the residual amounts of them were determined by a High Performance Liquid Chromatography (HPLC).

A short description of data set [2]: Effect on Plasma Triglyceride Level. As to conditions: dose 10 mg/kg/day, orally once a day for two weeks; STZ-induced diabetic rats. The class given is in vivo, Male SD rats. The procedure: Test 7 [Effect on Plasma Triglyceride Level]
Male SD rats weighing 180-230 g were made diabetic by intravenous administration of streptozotocin (STZ) at a dose of 60 mg/kg dissolved in 2 mM citrate buffer (pH 4.5). One week later, the rats were grouped by plasma triglyceride level and test compound were administered orally once a day for two weeks. Then blood samples were collected from orbital vein, and plasma triglyceride levels were measured enzymatically (Triglyceride G-Test WAKO). Control group received 0.5% methyl cellulose.

Data set [3] can be described thus: Solubility of the test compounds in various solvents. It counts as physicochemical. As to conditions: for Solubility: ambient temperature. The procedure:
The solubility of the test compounds in various solvents was measured at ambient temperature.

A short description of data set [4]: Effect on Renal Blood Flow. The class given is in vivo, Male beagle dogs. As to conditions: 10 μg/kg i.v., anesthetized dogs. Here is the method:
Test 6 Effect on Renal Blood Flow
Male beagle dogs, weighing 7-12 kg were anesthetized with sodium pentobarbital (30 mg/kg i.v.). The left renal artery was exposed retroperitoneally through a flank incision, and an electromagnetic flowmeter probe were placed around the left renal artery to measure renal blood flow.

For data set [5], the target named is α1-adrenoceptor. The data set can be described thus: α1-adrenoceptor binding assay. As to conditions: 3H-Prazosin binding, rat whole brain membranes. Here is the method:
Test 5 [α1-adrenoceptor binding assay]
Male Wistar rats (200-250 g) were killed by decapitation and the brain was placed in ice-cold buffer (0.25 M sucrose, 5 mM Tris/HCl, 1 mM MgCl2, pH 7.5).
Whole brain was homogenized in 10-20 volume (w/v) of ice-cold buffer for 20 strokes using a motor-drived Teflon-glass homogenizer. The homogenate was centrifuged at 1,000 g for 10 min at 4° C., and the pellet was discarded. The supernatant was centrifuged at 30,000 g for 20 min at 4° C. The pellet obtained was washed by
resuspension in 20 ml ice-cold 50 mM Tris/HCl, 10 mM MgCl2 buffer (pH 7.5) and recentrifuged at 30,000 g for 20 min at 4° C. The final pellet was resuspended in 15 volumes of original wet weight of 50 mM Tris/HCl, 10 mM MgCl2 buffer (pH 7.5) for use in the assays.
For ^3 H-Prazosin binding to rat brain, membrane suspensions prepared from rat whole brain (0.3-0.4 mg protein) were incubated by constant shaking for 20 min at 30° C. with ^3 H-Prazosin ([…]) and increasing concentrations of test compounds (10^-6 -10^-9 M) in a total volume of 550 μl of 50 mM Tris/HCl, 10 mM MgCl2 buffer containing 0.1 mg/ml bovine serum albumin (pH 7.5). […] These filter disks were counted by liquid scintillation counter with an efficacy of 40%. […] The concentration of the test compound inhibiting 50% of the specific binding of ^3 H-Prazosin was calculated by log profit analysis of the binding data.

For data set [6], the target named is T1, DA2 receptor (Rattus norvegicus, UniProt P61169).
T1 construct: the striatum were dissected from their brains; from tissue; host or cells: rat striatum (male rats, 150-300 g), washed homogenate pellet
The data set can be described thus: Dopamine receptor (DA2 receptor) binding assay. Here is the method:
Test 1 Dopamine receptor (DA2 receptor) binding assay
The affinity for DA2 receptor of a Test Compound was determined following in vitro receptor binding assays.
Male rats weighing 150-300g were decapitated and the striatum were dissected from their brains. The tissue was homogenized in 30 volumes of buffer which consisted of 50 mM Tris-HCl (pH 7.4 at 25° C.), 120 mM sodium chloride, 5 mM potassium chloride, 1 mM calcium chloride, 1 mM magnesium chloride, 10 μM pargirine, and 0.1% ascorbic acid. The homogenate was centrifuged at 50,000 g for 15 minutes. The pellet was resuspended in 30 volumes of the buffer. The tissue suspension was centrifuged and suspended again in the same way.
Incubation tubes received 100 μl of [phenyl-4-^3 H]spiperone, 100 μl of the Test Compound and 0.8 ml of tissue suspension during binding assays. The concentration of [phenyl-4-^3 H]spiperone was 0.2 nM. The final tissue concentration of rat striatum was 160 μg/ml. […] The filters were counted by liquid scintillation counter.
Specific binding of the [^3 H]spiperone was determined in the presence of 1 μM butaclamol. The IC50 value of the Test Compound was calculated from the data of [^3 H]spiperone binding in the present of 10^-9 M, 10^-8 M, 10^-7 M and 10^-6 M Test Compound.

In data set [7] the test system is reserpine-induced DOPA accumulation. The experiment in a line: Inhibition of reserpine-induced DOPA accumulation. It counts as in vivo, Male SD rats. As to conditions: dose 3.2 mg/kg, orally, 2 hours before sacrifice; striatum. The procedure:
Test 2 [Inhibition of reserpine-induced DOPA accumulation]
Male SD rats weighing 300-400 g were used in this test. Rats were pretreated with reserpine (1 mg/kg, S.C.) 17-19 hours before sacrifice and then fasted. Test Compound was given orally to the rats 2 hours before sacrifice. [m-Hydroxybenzylhydrazine (100 mg/kg, i.p.) was given 30 minutes before sacrifice.] Each rat was exposed to microwaves using a head-focus microwave applicator for 1.5 seconds. The whole brain was removed and further separated into the striatum.
DOPA was determined as follows; the striatum was homogenized in 9 volumes of 0.1N perchloric acid solution (0.4% EDTA·2Na). The homogenate was centrifuged at 10,000 rpm for 1 minutes. The supernatant was applied to high performance liquid chromatography.

The nature of data set [8]: Hypotensive effect on spontaneous hypertensive rats. It counts as in vivo, male spontaneous hypertensive rats. As to conditions: dose 0.32 mg/kg, orally. The procedure: Test 3 [Hypotensive effect on spontaneous hypertensive rats] 15 to 25-Week-old male spontaneous hypertensive rats with mean arterial blood pressure of about 160-200 mmHg, weighing 300-350 g, were used. The animals were cannulated in the left femoral artery and the mean blood pressure and heart rate were measured with a pressure-transducer. The animals were deprived of food for about 18 hours before oral dosing. The Test Compound was suspended in 0.5% methylcellulose, and given orally.

[9] abbreviates: 70° C./75% Relative Humidity, 9 days, HPLC.

T1 sequence (P61169 whole entry): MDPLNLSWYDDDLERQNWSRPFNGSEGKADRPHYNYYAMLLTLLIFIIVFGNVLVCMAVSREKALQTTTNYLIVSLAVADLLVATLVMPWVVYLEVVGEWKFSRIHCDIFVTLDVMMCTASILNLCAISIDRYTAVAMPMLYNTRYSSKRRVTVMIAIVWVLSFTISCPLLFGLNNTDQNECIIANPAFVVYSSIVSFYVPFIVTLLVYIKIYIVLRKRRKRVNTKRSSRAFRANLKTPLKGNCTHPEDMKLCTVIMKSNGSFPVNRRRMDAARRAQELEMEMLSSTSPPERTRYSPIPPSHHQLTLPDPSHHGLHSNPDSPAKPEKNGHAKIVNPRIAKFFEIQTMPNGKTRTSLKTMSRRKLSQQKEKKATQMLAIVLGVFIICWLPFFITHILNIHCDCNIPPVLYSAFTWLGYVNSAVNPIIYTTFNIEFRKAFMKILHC

What is called Solubility is the concentration that dissolves in the medium under given conditions. Higher therefore signals a readily soluble substance. Turning to `CCS(=O)(=O)Nc1ccc2[nH]c(=O)n(CCCCN3CC=C(c4ccccc4)CC3)c(=O)c2c1` [Compound C, 6-Ethylsulfonylamino-3-[4-(4-phenyl-1,2,3,6-tetrahydropyridin-1-yl)butyl]-1,2,3,4-tetrahydroquinazoline-2,4-dione], the remaining at 216 h in data set [1] (70° C., 9 days, HPLC, read-out: Residual Amount (%)) was 83.4%. Moreover, the “Residual Amount (%)” value in data set [1] (setting [9]) stood at 69.6%. In data set [2], this molecule yielded a plasma triglyceride of 138.2 ± 47.0 mg/dL. The Solubility in data set [3] (isotonic saline) came out at 9.41 µg/mL (≈ 19.5 µM); in data set [3] (water), 7.4 µg/mL (≈ 15.3 µM). Also, the “RBF (% change)” value in data set [4] is recorded as “+29 % change”.

The term IC50 denotes the point on the concentration scale where inhibition reaches its midpoint. A low value points to higher potency. `CS(=O)(=O)Nc1ccc2[nH]c(=O)n(CCCCN3CC=C(c4ccccc4)CC3)c(=O)c2c1` [Compound B, 3-[4-(4-phenyl-1,2,3,6-tetrahydropyridin-1-yl)butyl]-6-methylsulfonylamino-1,2,3,4-tetrahydroquinazoline-2,4-dione]: the IC50 in data set [5] amounted to 38 nM.

Consider `CCS(=O)(=O)Nc1ccc2[nH]c(=O)n(CCCCN3CC=C(c4ccccc4)CC3)c(=O)c2c1` [Compound D, 6-ethylsulfonylamino-3-[4-(4-phenyl-1,2,3,6=tetrahydropyridin-1-yl)butyl]-1,2,3,4=tetrahydroquinazoline-2,4-dione sulfate], for which the “stability (in words)” value in data set [1] is “better solubility and stability”. The “Residual Amount (%)” value in data set [1] (70° C., 9 days, HPLC) came to 98.2%; in data set [1] (setting [9]), 99.7%. Further, the Solubility was found to be 183 µg/mL in data set [3] (isotonic saline) and 733 µg/mL in data set [3] (water). The “solubility (in words)” value in data set [3] (versus the product of Example 32) is recorded as “better solubility”.

Take `O=c1[nH]c2cc(NO)ccc2c(=O)n1CCCCN1CC=C(c2ccccc2)CC1` [Compound A, 7-hydroxyamino-3-[4-(4-phenyl-1,2,3,6-tetrahydropyridin-1-yl)butyl]-1,2,3,4-tetrahydroquinazoline-2,4-dione]: the IC50 in data set [6] is 8.1 nM; in data set [5], 20 nM. In addition, the “Inhibition (%)” value in data set [7] was determined as 33%. For the same molecule, the “Maximum decrease of blood pressure (%)” value in data set [8] was found to be 34%.
